In ChEMBL document CHEMBL1150107, “Isolation and in vitro antiplasmodial activities of alkaloids from Teclea trichocarpa: in vivo antimalarial activity and X-ray crystal structure of normelicopicine” (J Nat Prod, 2002):

Key:
[1] = system: Plasmodium falciparum; assay: Antiplasmodial activity against chloroquine-sensitive Plasmodium falciparum HB3 after 48 hrs by LDH reporter activity; format: functional, organism-based; conditions: HB3, 48 h
[2] = system: Plasmodium falciparum; assay: Antiplasmodial activity against chloroquine-resistant Plasmodium falciparum K1 after 48 hrs by LDH activity; format: functional, organism-based; conditions: K1, 48 h
[3] = system: Plasmodium berghei; assay: Antimalarial activity as reduced parasitaemia at day 5 against Plasmodium berghei ANKA infected BALB/c mice (Mus musculus) at 25 mg/kg/day intraperitoneal dose over 4 days; format: functional; parameters: scale not given: the % may be the effect or the level left
[4] = system: KB; assay: Cytotoxicity against human KB cells by alamar blue assay; format: cell-based
[5] = Selectivity index, ratio of IC50 for human KB cells to IC50 for chloroquine-sensitive Plasmodium falciparum HB3; format: toxicity, cell-based; conditions: read-out: Ratio IC50
[6] = Selectivity index, ratio of IC50 for human KB cells to IC50 for chloroquine-resistant Plasmodium falciparum K1; format: toxicity, cell-based; conditions: read-out: Ratio IC50
[7] = system: Plasmodium berghei; assay: Antimalarial activity as reduced parasitaemia at day 5 against Plasmodium berghei ANKA infected in BALB/c mice (Mus musculus) at 10 mg/kg/day intraperitoneal dose over 4 days; format: functional; parameters: scale not given: the % may be the effect or the level left

Compound | IC50 [1] | IC50 [2] | other results
COc1ccc2c(OC)c3ccoc3nc2c1OC [SKIMMIANINE] | 47.5 µM | 59 µM | 
COc1c(OC)c(OC)c2c(c1O)c(=O)c1ccccc1n2C [NORMELICOPICINE] | 8.25 µM | 14.7 µM | Activity [3]: 32.1%; IC50 [4]: > 328 µM; selectivity ratio [5]: 22; selectivity ratio [6]: 40
COc1cc2c(c(O)c1OC)c(=O)c1ccccc1n2C [ARBORININE] | 3.85 µM | 9.34 µM | 
COc1c2c(cc3c1c(=O)c1cccc(OC)c1n3C)OCO2 [TECLEANTHINE] | 23.2 µM | 53 µM | 
COc1c(OC)c(OC)c2c(c1OC)c(=O)c1ccccc1n2C [MELICOPICINE] | > 100 µM | > 100 µM | 
COc1ccc2c(=O)c3c(OC)c4c(cc3n(C)c2c1OC)OCO4 | 32.3 µM | 56.9 µM | 
CCN(CC)CCCC(C)Nc1ccnc2cc(Cl)ccc12.O=P(O)(O)O.O=P(O)(O)O (stereo not drawn) [CHLOROQUINE PHOSPHATE] |  |  | Activity [7]: 100%
COc1cc([C@@H]2c3cc4c(cc3[C@H](O)[C@H]3COC(=O)[C@H]23)OCO4)cc(OC)c1OC [PODOFILOX] |  |  | IC50 [4]: 0.0048 µM
